“And” between values parts separate entries of the source, which are not always exact repeats. Identical values can stand only once.
Tested on: Rattus norvegicus
Conditions: oral, gavage
[1] = developmental, duration: 24 days, M/F, Sprague-Dawley, generation: F1, F1: Whole Body: Pup Weight per Litter, PND1
[2] = reproduction developmental, duration: 24 days, F, Sprague-Dawley, generation: P0, P0: Whole Body: Clinical Signs
[3] = reproduction developmental, duration: 24 days, F, Sprague-Dawley, generation: P0, P0: Whole Body: Feed Consumption, Absolute + P0: Whole Body: Maternal Body Weight Change + P0: Whole Body: Mortality + P0: Whole Body: No. …
[4] = short-term, duration: 28 days, F, Wistar, Adrenal: Adrenal Gland Weight, Absolute + Adrenal: Adrenal Gland Weight, Relative + Kidney: Creatinine (CREAT) + Multi-Organ: Calcium (CA)
[5] = short-term, duration: 28 days, M, Wistar, Blood: Hematocrit (HCT) + Blood: Hemoglobin (HGB) + Kidney: Urea + Liver: Alkaline Phosphatase (ALP) + Liver: Liver, Enlarged + Multi-Organ…
[6] = short-term, duration: 28 days, M, Wistar, Liver: Liver Weight, Absolute + Multi-Organ: Glucose (GLU) + Multi-Organ: Potassium (K)
[7] = subchronic, duration: 90 days, F, Sprague-Dawley, Kidney: Calcium (CA) Excretion + Multi-Organ: White Blood Cell (WBC)
[8] = subchronic, duration: 90 days, M, Sprague-Dawley, Blood: Hematocrit (HCT) + Blood: Hemoglobin (HGB)
[9] = subchronic, duration: 90 days, M, Sprague-Dawley, Blood: Red Blood Cell (RBC) + Liver: Aspartate Aminotransferase (AST) + Multi-Organ: Prothrombin Time (PT)
[10] = reproduction developmental, F, Crl:CD(SD), generation: P0, P0: Endocrine: Adrenal: Adrenal Gland Histopathology + P0: Endocrine: Adrenal: Adrenal Gland Weight, Absolute + P0: Endocrine: Adrenal: …
[11] = reproduction developmental, F, Crl:CD(SD), generation: P0, P0: Hematologic: Multi-Organ: Activated Partial Thromboplastin Time (APTT) + P0: Hematologic: Multi-Organ: Hematocrit (HCT) + P0: …
[12] = reproduction developmental, M, Crl:CD(SD), generation: P0, P0: Endocrine: Adrenal: Adrenal Gland Histopathology + P0: Endocrine: Adrenal: Adrenal Gland Weight, Absolute + P0: Endocrine: Adrenal: …
[13] = reproduction developmental, M, Crl:CD(SD), generation: P0, P0: Hematologic: Multi-Organ: Activated Partial Thromboplastin Time (APTT) + P0: Hematologic: Multi-Organ: Hematocrit (HCT) + P0: …
[14] = short-term, duration: 10 days, M, Sprague-Dawley, Endocrine: Multi-Organ: Follicle Stimulating Hormone (FSH), Serum + Endocrine: Multi-Organ: Leuteinizing Hormone (LH), Serum + Endocrine: …
[15] = short-term, duration: 10 days, M, Sprague-Dawley, Endocrine: Multi-Organ: Testosterone (T), Serum + Reproductive: Epididymis: Epididymis Weight, Absolute + Reproductive: Epididymis: …

O=C([O-])C(F)(F)C(F)OC(F)(F)C(F)(F)C(F)(F)OC(F)(F)F.[NH4+] (stereo not given) [Ammonium 4,8-dioxa-3H-perfluorononanoate]
NOAEL (developmental, duration: 24 days, M/F, Sprague-Dawley, generation: F1, F1: Whole Body: Dams with Stillborn Pups + F1: Whole Body: Delivered Litters + F1: Whole Body: Live Pups Born + F1: Whole Body: Mean Pups …): 270 mg/kg-day
LOAEL (developmental, duration: 24 days, M/F, Sprague-Dawley, generation: F1, F1: Whole Body: No Milk in Stomach + F1: Whole Body: Pup Weight per Litter, PND4 + F1: Whole Body: Pup Weight per Litter, PND6 + F1: Whole …): 270 mg/kg-day
LOAEL [1]: 90 mg/kg-day
NOAEL [1]: 30 mg/kg-day
NOAEL (developmental, duration: 24 days, M/F, Sprague-Dawley, generation: F1, F1: Whole Body: Pup Weight per Litter, PND4 + F1: Whole Body: Pup Weight per Litter, PND6 + F1: Whole Body: Survival, PND1 + F1: Whole Body…): 90 mg/kg-day
NOAEL (reproduction developmental, duration: 24 days, F, Sprague-Dawley, generation: P0, P0: Uterus: Resorptions, Early + P0: Whole Body: Feed Consumption, Absolute + P0: Whole Body: Length of Gestation + P0: Whole Body: Length …): 270 mg/kg-day
LOAEL [2]: 90 mg/kg-day
NOAEL [2]: 30 mg/kg-day
LOAEL [3]: 270 mg/kg-day
NOAEL [3]: 90 mg/kg-day
LOAEL [4]: 100 mg/kg-day
NOAEL [4]: 30 mg/kg-day
NOAEL (short-term, duration: 28 days, F, Wistar, Blood: Activated Partial Thromboplastin Time (APTT) + Blood: Albumin/Globulin (A/G) Ratio + Blood: Hematocrit (HCT) + Blood: Hemoglobin (HGB…): 100 mg/kg-day
NOAEL (short-term, duration: 28 days, M, Wistar, Adrenal: Adrenal Gland Weight, Absolute + Adrenal: Adrenal Gland Weight, Relative + Blood: Activated Partial Thromboplastin Time (APTT) + …): 100 mg/kg-day
LOAEL [5]: 100 mg/kg-day
NOAEL [5]: 30 mg/kg-day
LOAEL (short-term, duration: 28 days, M, Wistar, Liver: Hepatocellular Hypertrophy + Liver: Liver Weight, Relative + Liver: Total Bilirubin (TBILI)): 10 mg/kg-day
LOAEL [6]: 30 mg/kg-day
NOAEL [6]: 10 mg/kg-day
NOAEL (subchronic, duration: 90 days, F, Sprague-Dawley, Adrenal: Adrenal Gland Weight, Absolute + Adrenal: Adrenal Gland Weight, Relative + Blood: Activated Partial Thromboplastin Time (APTT) + …): 100 mg/kg-day
LOAEL [7]: 100 mg/kg-day
NOAEL [7]: 30 mg/kg-day
NOAEL (subchronic, duration: 90 days, M, Sprague-Dawley, Adrenal: Adrenal Gland Weight, Absolute + Adrenal: Adrenal Gland Weight, Relative + Blood: Activated Partial Thromboplastin Time (APTT) + …): 10 mg/kg-day
LOAEL [8]: 3 mg/kg-day
NOAEL [8]: 1 mg/kg-day
LOAEL [9]: 10 mg/kg-day
NOAEL [9]: 3 mg/kg-day

O=C(O)C(F)(F)C(F)(F)C(F)(F)C(F)(F)C(F)(F)C(F)(F)C(F)(F)C(F)(F)C(F)(F)C(F)(F)C(F)(F)C(F)(F)C(F)(F)F [Perfluorotetradecanoic acid]
NOAEL (developmental, F, Crl:CD(SD), generation: F1, F1: Developmental: Whole Body: Body Weight, Birth + F1: Developmental: Whole Body: Body Weight, Pup, PND 1 + F1: Developmental: Whole Body: …): 1 mg/kg-day and 3 mg/kg-day
NOAEL (developmental, M/F, Crl:CD(SD), generation: F1, F1: Developmental: Whole Body: Litter Size + F1: Developmental: Whole Body: Male Pups per Pups Sexed + F1: Developmental: Whole Body: Mean …): 1 mg/kg-day and 3 mg/kg-day
NOAEL (developmental, M, Crl:CD(SD), generation: F1, F1: Developmental: Whole Body: Body Weight, Birth + F1: Developmental: Whole Body: Body Weight, Pup, PND1 + F1: Developmental: Whole Body: …): 1 mg/kg-day and 3 mg/kg-day
LOAEL (reproduction developmental, F, Crl:CD(SD), generation: P0, P0: Cardiovascular: Heart: Heart Histopathology + P0: Cardiovascular: Heart: Heart Weight, Absolute + P0: Cardiovascular: Heart: Heart …): 3 mg/kg-day
LOAEL [10]: 3 mg/kg-day
NOAEL [10]: 1 mg/kg-day
LOAEL [11]: 10 mg/kg-day
NOAEL [11]: 3 mg/kg-day
LOAEL (reproduction developmental, M, Crl:CD(SD), generation: P0, P0: Cardiovascular: Heart: Heart Histopathology + P0: Cardiovascular: Heart: Heart Weight, Absolute + P0: Cardiovascular: Heart: Heart …): 3 mg/kg-day
LOAEL [12]: 3 mg/kg-day
NOAEL [12]: 1 mg/kg-day
LOAEL [13]: 10 mg/kg-day
NOAEL [13]: 3 mg/kg-day
LOAEL [14]: 20 mg/kg-day
NOAEL [14]: 10 mg/kg-day
NOAEL (short-term, duration: 10 days, M, Sprague-Dawley, Endocrine: Multi-Organ: Follicle Stimulating Hormone (FSH), Serum + Endocrine: Multi-Organ: Leuteinizing Hormone (LH), Serum + Whole Body: …): 20 mg/kg-day
LOAEL [15]: 20 mg/kg-day
NOAEL [15]: 10 mg/kg-day

Reference: EPA's ToxValDB 9.5
